As a reminder, the Ki is the equilibrium dissociation constant of an inhibitor or competing ligand from its target. Lower therefore signals tighter binding.

Among the data in BindingDB's records for doi:10.1021/jm00382a015 (1985) are Ki values, retold here.

This test has as its target Adenosylhomocysteinase (Bos taurus). Briefly: Binding affinity against S-adenosyl-homocysteine hydrolase.

With `Nc1nccc2c1ncn2[C@@H]1C[C@H](CO)[C@@H](O)[C@H]1O` [3-DEAZAARISTEROMYCIN A], the Ki was determined as 0.004 µM.

Consider `Nc1ncnc2c1nnn2C1CC(CO)C(O)C1O` (configuration not stated) [3-(7-amino-3H-[1,2,3]triazolo[4,5-d]pyrimidin-3-yl)-5-hydroxymethyl-1,2-cyclopentanediol], for which the affinity, expressed as Ki, was 22 µM.
